Assay: Storage stability in sealed container in 37 C oven for nine months
Conditions: nine month storage period
Text: These ingredients were blended together until homogenous and were allowed to remain in a sealed container in a 37 C oven for nine months.

Zinc pyrithione
stability with acrylic dental adhesives (premature cure on storage): does not cure

— patent US9480627B2, “Long term bacteriostatic compounds and their use in restorative dental materials” (priority 2010, dated 2016)
